The results in this text go back to US10968225B2, “Compounds and compositions for the treatment of cystic fibrosis” (Fondazione Istituto Italiano Di Tecnologia, priority 2017, dated 2021).

For this test, the target named is T1, mutant CFTR (Homo sapiens, UniProt P13569, DEL508-508).
T1 construct: expressed in transfected cells
T1 sequence (P13569 with tags, fused parts or gaps DEL508-508): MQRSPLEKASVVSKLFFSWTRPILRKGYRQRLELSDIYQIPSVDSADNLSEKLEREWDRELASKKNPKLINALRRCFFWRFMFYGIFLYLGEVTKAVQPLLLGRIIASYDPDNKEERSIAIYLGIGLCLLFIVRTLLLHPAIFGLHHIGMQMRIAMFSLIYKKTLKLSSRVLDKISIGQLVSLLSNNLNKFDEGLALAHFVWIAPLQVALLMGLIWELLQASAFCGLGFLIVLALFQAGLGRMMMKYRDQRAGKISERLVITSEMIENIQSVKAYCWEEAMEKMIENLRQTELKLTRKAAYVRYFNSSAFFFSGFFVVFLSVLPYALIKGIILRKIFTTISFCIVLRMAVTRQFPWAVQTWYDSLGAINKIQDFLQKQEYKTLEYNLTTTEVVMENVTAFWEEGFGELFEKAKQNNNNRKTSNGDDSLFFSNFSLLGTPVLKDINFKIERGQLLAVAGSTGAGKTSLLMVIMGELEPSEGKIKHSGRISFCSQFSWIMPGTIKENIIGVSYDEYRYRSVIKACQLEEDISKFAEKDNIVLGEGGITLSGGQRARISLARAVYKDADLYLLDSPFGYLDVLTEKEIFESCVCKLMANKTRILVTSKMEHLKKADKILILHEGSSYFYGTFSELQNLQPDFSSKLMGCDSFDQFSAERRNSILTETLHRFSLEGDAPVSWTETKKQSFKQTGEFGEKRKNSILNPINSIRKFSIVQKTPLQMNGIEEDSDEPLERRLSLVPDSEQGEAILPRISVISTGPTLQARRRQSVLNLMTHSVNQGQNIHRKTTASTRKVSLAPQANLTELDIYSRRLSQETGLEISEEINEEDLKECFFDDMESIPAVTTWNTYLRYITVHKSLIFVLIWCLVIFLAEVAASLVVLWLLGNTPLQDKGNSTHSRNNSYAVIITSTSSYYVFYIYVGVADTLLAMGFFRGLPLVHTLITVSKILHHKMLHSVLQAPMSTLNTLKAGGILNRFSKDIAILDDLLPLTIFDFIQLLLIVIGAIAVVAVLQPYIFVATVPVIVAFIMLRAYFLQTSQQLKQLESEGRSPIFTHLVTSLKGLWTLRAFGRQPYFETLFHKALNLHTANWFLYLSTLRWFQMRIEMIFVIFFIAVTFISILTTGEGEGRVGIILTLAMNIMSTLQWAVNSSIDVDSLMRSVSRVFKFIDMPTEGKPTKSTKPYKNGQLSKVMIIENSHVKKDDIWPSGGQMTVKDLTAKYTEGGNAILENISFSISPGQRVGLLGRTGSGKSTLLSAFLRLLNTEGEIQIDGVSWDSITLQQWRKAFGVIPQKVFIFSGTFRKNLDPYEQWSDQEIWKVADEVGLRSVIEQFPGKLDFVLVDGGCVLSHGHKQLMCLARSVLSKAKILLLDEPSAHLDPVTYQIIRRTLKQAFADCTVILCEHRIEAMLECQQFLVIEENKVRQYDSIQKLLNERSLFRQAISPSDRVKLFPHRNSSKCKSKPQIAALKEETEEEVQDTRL
In words: Fluorescence (HS-YFP) assay for CFTR activity, corrector assay. The class given is cell-based. To be noted: CFBE41o- and FRT cells with stable expression of mutant CFTR, read-out: activity (EC50).
`Cc1noc(C)c1S(=O)(=O)N1[C@H]2CC[C@@H]1c1c(C(F)(F)F)nn(-c3cccc(C(=O)N(C)c4ccc5c(c4)OCO5)c3)c1C2` (single isomer, unassigned) [Compound 129, (4R,7S)- or (4S,7R)—N-(Benzo[d][1,3]dioxol-5-yl)-3-(9-((3,5-dimethylisoxazol-4-yl)sulfonyl)-3-(trifluoromethyl)-5,6,7,8-tetrahydro-4,7-epiminocyclohepta[c]pyrazol-1(4H)-yl)-N-methylbenzamide]: the EC50 is < 1000 nM.

On to `Cc1n[nH]c(C)c1S(=O)(=O)N1[C@H]2CC[C@@H]1c1c(C(F)(F)F)nn(-c3cccc(C(=O)N(C)c4ccc5c(c4)OCO5)c3)c1C2` (single isomer, unassigned) [Compound 130, (4R,7S)- or (4S,7R)—N-(Benzo[d][1,3]dioxol-5-yl)-3-(9-((3,5-dimethyl-1H-pyrazol-4-yl)sulfonyl)-3-(trifluoromethyl)-5,6,7,8-tetrahydro-4,7-epiminocyclohepta[c]pyrazol-1(4H)-yl)-N-methylbenzamide], for which the EC50 is < 1000 nM.

As to `CN(C(=O)c1cccc(-n2nc(C(F)(F)F)c3c2C[C@@H]2CC[C@H]3N2C2CCC2)c1)c1ccc2c(c1)OCO2` (single isomer, unassigned) [Compound 131, (4R,7S)- or (4S,7R)—N-(Benzo[d][1,3]dioxol-5-yl)-3-(9-cyclobutyl-3-(trifluoromethyl)-5,6,7,8-tetrahydro-4,7-epiminocyclohepta[c]pyrazol-1(4H)-yl)-N-methylbenzamide], the EC50 is < 1000 nM.

Regarding `CN(C(=O)c1cccc(-n2nc(C(F)(F)F)c3c2C(Oc2ccc(C(=O)O)cc2)CCC3)c1)c1ccc2c(c1)OC(F)(F)O2` (single isomer, unassigned) [Compound 150, (R) or (S)-4-[[1-[3-[(2,2-Difluoro-1,3-benzodioxol-5-yl)-methyl-carbamoyl]phenyl]-3-(trifluoromethyl)-4,5,6,7-tetrahydroindazol-7-yl]oxy]benzoic acid], the EC50 was < 1000 nM.

`CN(C(=O)c1cccc(-n2nc(C(F)(F)F)c3c2C(Oc2ccc(C(=O)O)cc2)CCC3)c1)c1ccc2c(c1)OC(F)(F)O2` (single isomer, unassigned) [Compound 151, (S) or (R)-4-[[1-[3-[(2,2-Difluoro-1,3-benzodioxol-5-yl)-methyl-carbamoyl]phenyl]-3-(trifluoromethyl)-4,5,6,7-tetrahydroindazol-7-yl]oxy]benzoic acid]: the EC50 is < 1000 nM.

Turning to `CN(C(=O)c1cccc(-n2nc(C(F)(F)F)c3c2C(Oc2ccc(C(=O)O)nc2)CCC3)c1)c1ccc2c(c1)OC(F)(F)O2` (single isomer, unassigned) [Compound 185, (S) or (R)-5-[[-1-[3-[(2,2-Difluoro-1,3-benzodioxol-5-yl)-methyl-carbamoyl]phenyl]-3-(trifluoromethyl)-4,5,6,7-tetrahydroindazol-7-yl]oxy]pyridine-2-carboxylic acid], the concentration for a half-maximal effect (EC50) was < 1000 nM.

As for `CN(C(=O)c1cccc(-n2nc(C(F)(F)F)c3c2C(Oc2ccc(C(=O)O)nc2)CCC3)c1)c1ccc2c(c1)OC(F)(F)O2` (single isomer, unassigned) [Compound 186, (R) or (S)-5-[[1-[3-[(2,2-Difluoro-1,3-benzodioxol-5-yl)-methyl-carbamoyl]phenyl]-3-(trifluoromethyl)-4,5,6,7-tetrahydroindazol-7-yl]oxy]pyridine-2-carboxylic acid], the half-maximal effective concentration (EC50) was < 1000 nM.

In the case of `CN(C(=O)c1cccc(-n2nc(C(F)(F)F)c3c2C(Oc2cccc(C(=O)O)c2)CCC3)c1)c1ccc2c(c1)OC(F)(F)O2` (single isomer, unassigned) [Compound 188, (S) or (R)-3-[[1-[3-[(2,2-Difluoro-1,3-benzodioxol-5-yl)-methyl-carbamoyl]phenyl]-3-(trifluoromethyl)-4,5,6,7-tetrahydroindazol-7-yl]oxy]benzoic acid], the EC50 was < 1000 nM.

Regarding `CN(C(=O)c1cccc(-n2nc(C(F)(F)F)c3c2C(Oc2cccc(C(=O)O)c2)CCC3)c1)c1ccc2c(c1)OC(F)(F)O2` (single isomer, unassigned) [Compound 190, (R) or (S)-3-[[1-[3-[(2,2-Difluoro-1,3-benzodioxol-5-yl)-methyl-carbamoyl]phenyl]-3-(trifluoromethyl)-4,5,6,7-tetrahydroindazol-7-yl]oxy]benzoic acid], the EC50 is < 1000 nM.

Regarding `CN(C(=O)c1cccc(-n2nc(C(F)(F)F)c3c2C(Oc2ccc(C(=O)O)cn2)CCC3)c1)c1ccc2c(c1)OC(F)(F)O2` (single isomer, unassigned) [Compound 192, (S) or (R)-6-[[1-[3-[(2,2-Difluoro-1,3-benzodioxol-5-yl)-methyl-carbamoyl]phenyl]-3-(trifluoromethyl)-4,5,6,7-tetrahydroindazol-7-yl]oxy]pyridine-3-carboxylic acid], the half-maximal effective concentration (EC50) is < 1000 nM.

Turning to `CN(C(=O)c1cccc(-n2nc(C(F)(F)F)c3c2C(Oc2ccc(C(=O)O)cn2)CCC3)c1)c1ccc2c(c1)OC(F)(F)O2` (single isomer, unassigned) [Compound 194, (R) or (S)-6-[[1-[3-[(2,2-Difluoro-1,3-benzodioxol-5-yl)-methyl-carbamoyl]phenyl]-3-(trifluoromethyl)-4,5,6,7-tetrahydroindazol-7-yl]oxy]pyridine-3-carboxylic acid], the EC50 is < 1000 nM.

`CN(C(=O)c1cccc(-n2nc(C(F)(F)F)c3c2C(Oc2cc(C(=O)O)ccn2)CCC3)c1)c1ccc2c(c1)OC(F)(F)O2` (single isomer, unassigned) [Compound 196, (S) or (R)-2-[[1-[3-[(2,2-Difluoro-1,3-benzodioxol-5-yl)-methyl-carbamoyl]phenyl]-3-(trifluoromethyl)-4,5,6,7-tetrahydroindazol-7-yl]oxy]pyridine-4-carboxylic acid]: the half-maximal effective concentration (EC50) was < 1000 nM.

Turning to `CN(C(=O)c1cccc(-n2nc(C(F)(F)F)c3c2C(Oc2cc(C(=O)O)ccn2)CCC3)c1)c1ccc2c(c1)OC(F)(F)O2` (single isomer, unassigned) [Compound 198, (R) or (S)-2-[[1-[3-[(2,2-Difluoro-1,3-benzodioxol-5-yl)-methyl-carbamoyl]phenyl]-3-(trifluoromethyl)-4,5,6,7-tetrahydroindazol-7-yl]oxy]pyridine-4-carboxylic acid], the EC50 was < 1000 nM.

For the compound `CN(C(=O)c1cccc(-n2nc(C(F)(F)F)c3c2C(Oc2ccc(C(=O)O)cc2)COC3)c1)c1ccc2c(c1)OC(F)(F)O2` (single isomer, unassigned) [Compound 205, (R) or (S)-4-[[1-[3-[(2,2-Difluoro-1,3-benzodioxol-5-yl)-methyl-carbamoyl]phenyl]-3-(trifluoromethyl)-6,7-dihydro-4H-pyrano[4,3-c]pyrazol-7-yl]oxy]benzoic acid], the concentration for a half-maximal effect (EC50) was < 1000 nM.

For the compound `CN(C(=O)c1cccc(-n2nc(C(F)(F)F)c3c2C(Oc2ccc(C(=O)O)cc2)COC3)c1)c1ccc2c(c1)OC(F)(F)O2` (single isomer, unassigned) [Compound 206, (S) or (R)-4-[[1-[3-[(2,2-Difluoro-1,3-benzodioxol-5-yl)-methyl-carbamoyl]phenyl]-3-(trifluoromethyl)-6,7-dihydro-4H-pyrano[4,3-c]pyrazol-7-yl]oxy]benzoic acid], the EC50 is < 1000 nM.

For `Cc1cc2ncc(N(C)C(=O)c3cccc(-n4nc(C(F)(F)F)c5c4[C@H](Oc4ccc(C(=O)O)cc4)CCC5)c3)cn2n1` (single isomer, unassigned) [Compound 217, (S) or (R)-4-[[1-[3-[Methyl-(2-methylpyrazolo[1,5-a]pyrimidin-6-yl)carbamoyl]phenyl]-3-(trifluoromethyl)-4,5,6,7-tetrahydroindazol-7-yl]oxy]benzoic acid], the EC50 was < 1000 nM.

Consider `Cc1cc2ncc(N(C)C(=O)c3cccc(-n4nc(C(F)(F)F)c5c4[C@@H](Oc4ccc(C(=O)O)cc4)CCC5)c3)cn2n1` (single isomer, unassigned) [Compound 218, (R) or (S)-4-[[1-[3-[Methyl-(2-methylpyrazolo[1,5-a]pyrimidin-6-yl)carbamoyl]phenyl]-3-(trifluoromethyl)-4,5,6,7-tetrahydroindazol-7-yl]oxy]benzoic acid], for which the concentration for a half-maximal effect (EC50) was in the range of 1000 to 2000 nM.

With `CN(C(=O)c1cccc(-n2nc(C(F)(F)F)c3c2C(Oc2cncc(C(=O)O)c2)CCC3)c1)c1ccc2c(c1)OC(F)(F)O2` (single isomer, unassigned) [Compound 271, (S) or (R)-5-[[1-[3-[(2,2-Difluoro-1,3-benzodioxol-5-yl)-methyl-carbamoyl]phenyl]-3-(trifluoromethyl)-4,5,6,7-tetrahydroindazol-7-yl]oxy]pyridine-3-carboxylic acid], the concentration for a half-maximal effect (EC50) was < 1000 nM.

As to `CN(C(=O)c1cccc(-n2nc(C(F)(F)F)c3c2C(Oc2cncc(C(=O)O)c2)CCC3)c1)c1ccc2c(c1)OC(F)(F)O2` (single isomer, unassigned) [Compound 272, (R) or (S)-5-[[1-[3-[(2,2-Difluoro-1,3-benzodioxol-5-yl)-methyl-carbamoyl]phenyl]-3-(trifluoromethyl)-4,5,6,7-tetrahydroindazol-7-yl]oxy]pyridine-3-carboxylic acid], the EC50 fell in the range of 1000 to 2000 nM.

As to `CN(C(=O)c1cccc(-n2nc(C(F)(F)F)c3c2C(Oc2ccc(C(=O)O)cc2)CCC3)c1)c1cnc2c(c1)OCC2` (single isomer, unassigned) [Compound 275, (S) or (R)-4-[[1-[3-[2,3-Dihydrofuro[3,2-b]pyridin-6-yl(methyl)carbamoyl]phenyl]-3-(trifluoromethyl)-4,5,6,7-tetrahydroindazol-7-yl]oxy]benzoic acid], the concentration giving a half-maximal response (EC50) was < 1000 nM.

Take `CN(C(=O)c1cccc(-n2nc(C(F)(F)F)c3c2C(Oc2ccc(C(=O)O)cc2)CCC3)c1)c1cnc2c(c1)OCC2` (single isomer, unassigned) [Compound 276, (R) or (S)-4-[[1-[3-[2,3-Dihydrofuro[3,2-b]pyridin-6-yl(methyl)carbamoyl]phenyl]-3-(trifluoromethyl)-4,5,6,7-tetrahydroindazol-7-yl]oxy]benzoic acid]: the half-maximal effective concentration (EC50) was 1000 to 2000 nM.
